Test system: hepatocytes
Assay: Seq-Well scRNA-Seq of hepatocytes after APAP overdose (signature scores, DEG vs untreated)
Format: in vivo, mouse

CC(=O)Nc1ccc(O)cc1 [APAP, acetaminophen]
Ubb A48logFC (A48 vs UT): −0.2644
0610005C13Rik avg_logFC (A96 vs untreated (UT)): 0.2979
0610005C13Rik pct.1 (A96 vs untreated (UT)): 0.816
0610007P14Rik avg_logFC (A96 vs untreated (UT)): 0.2519
0610007P14Rik pct.1 (A96 vs untreated (UT)): 0.512
8430408G22Rik avg_logFC (A96 vs untreated (UT)): 0.2527
8430408G22Rik pct.1 (A96 vs untreated (UT)): 0.559
Abca6 avg_logFC (A96 vs untreated (UT)): 0.2823
Abca6 pct.1 (A96 vs untreated (UT)): 0.686
Abcb4 avg_logFC (A96 vs untreated (UT)): 0.4758
Abcb4 pct.1 (A96 vs untreated (UT)): 0.878
Abcc3 pct.1 (A96 vs untreated (UT)): 0.733
Acad11 avg_logFC (A96 vs untreated (UT)): 0.2578
Acad11 pct.1 (A96 vs untreated (UT)): 0.711
Acadl avg_logFC (A96 vs untreated (UT)): 0.2937
Acadl pct.1 (A96 vs untreated (UT)): 0.8
Acat1 avg_logFC (A96 vs untreated (UT)): 0.3485
Acat1 pct.1 (A96 vs untreated (UT)): 0.917
Acbd5 avg_logFC (A96 vs untreated (UT)): 0.4341
Acbd5 pct.1 (A96 vs untreated (UT)): 0.87
Acot1 avg_logFC (A96 vs untreated (UT)): 0.298
Acot1 pct.1 (A96 vs untreated (UT)): 0.459
Acot4 avg_logFC (A96 vs untreated (UT)): 0.268
Acot4 pct.1 (A96 vs untreated (UT)): 0.328
Acot12 avg_logFC (A96 vs untreated (UT)): 0.2957
Acot12 pct.1 (A96 vs untreated (UT)): 0.65
Acsl1 avg_logFC (A96 vs untreated (UT)): 0.2915
Acsl1 pct.1 (A96 vs untreated (UT)): 0.977
Actn4 avg_logFC (A96 vs untreated (UT)): 0.2609
Actn4 pct.1 (A96 vs untreated (UT)): 0.6
Agpat6 avg_logFC (A96 vs untreated (UT)): 0.4098
Agpat6 pct.1 (A96 vs untreated (UT)): 0.743
Agt avg_logFC (A96 vs untreated (UT)): 0.3765
Agt pct.1 (A96 vs untreated (UT)): 0.912
Akr1c6 avg_logFC (A96 vs untreated (UT)): −0.359
Akr1c6 pct.1 (A96 vs untreated (UT)): 0.967
Akr1d1 avg_logFC (A96 vs untreated (UT)): 0.3787
Akr1d1 pct.1 (A96 vs untreated (UT)): 0.721
Aldh2 avg_logFC (A96 vs untreated (UT)): 0.304
Aldh2 pct.1 (A96 vs untreated (UT)): 0.995
Aldh3a2 avg_logFC (A96 vs untreated (UT)): 0.4933
Aldh3a2 pct.1 (A96 vs untreated (UT)): 0.687
Aldh6a1 avg_logFC (A96 vs untreated (UT)): 0.2669
Aldh6a1 pct.1 (A96 vs untreated (UT)): 0.829
Aldh9a1 avg_logFC (A96 vs untreated (UT)): 0.3633
Aldh9a1 pct.1 (A96 vs untreated (UT)): 0.884
Amy1 avg_logFC (A96 vs untreated (UT)): 0.4212
Amy1 pct.1 (A96 vs untreated (UT)): 0.831
Angptl3 avg_logFC (A96 vs untreated (UT)): 0.6936
Angptl3 pct.1 (A96 vs untreated (UT)): 0.998
Apoc1 avg_logFC (A96 vs untreated (UT)): 0.5008
Apoc1 pct.1 (A96 vs untreated (UT)): 1
Apoc2 avg_logFC (A96 vs untreated (UT)): 0.5187
Apoc2 pct.1 (A96 vs untreated (UT)): 0.901
Apoc3 avg_logFC (A96 vs untreated (UT)): 0.3002
Apoe avg_logFC (A96 vs untreated (UT)): 0.327
Apoe pct.1 (A96 vs untreated (UT)): 1
Apoh avg_logFC (A96 vs untreated (UT)): 0.3467
Apoh pct.1 (A96 vs untreated (UT)): 0.998
Apol7a avg_logFC (A96 vs untreated (UT)): 0.2716
Apol7a pct.1 (A96 vs untreated (UT)): 0.559
Aqp9 avg_logFC (A96 vs untreated (UT)): 0.3346
Aqp9 pct.1 (A96 vs untreated (UT)): 0.801
Arl4a avg_logFC (A96 vs untreated (UT)): 0.2911
Arl4a pct.1 (A96 vs untreated (UT)): 0.517
Asl avg_logFC (A96 vs untreated (UT)): 0.4141
Asl pct.1 (A96 vs untreated (UT)): 0.896
Atf5 avg_logFC (A96 vs untreated (UT)): 0.2708
Atf5 pct.1 (A96 vs untreated (UT)): 0.745
Atp5k avg_logFC (A96 vs untreated (UT)): 0.4068
Atp5k pct.1 (A96 vs untreated (UT)): 0.837
Atp5h avg_logFC (A96 vs untreated (UT)): 0.3114
Atp5h pct.1 (A96 vs untreated (UT)): 0.848
Atxn7l3b avg_logFC (A96 vs untreated (UT)): 0.2828
Atxn7l3b pct.1 (A96 vs untreated (UT)): 0.654
BC005537 avg_logFC (A96 vs untreated (UT)): 0.2869
BC005537 pct.1 (A96 vs untreated (UT)): 0.611
Baat avg_logFC (A96 vs untreated (UT)): 0.2625
Baat pct.1 (A96 vs untreated (UT)): 0.862
Bche avg_logFC (A96 vs untreated (UT)): 0.3287
Bche pct.1 (A96 vs untreated (UT)): 0.588
Bnip3 avg_logFC (A96 vs untreated (UT)): 0.3443
Bnip3 pct.1 (A96 vs untreated (UT)): 0.716
Brap avg_logFC (A96 vs untreated (UT)): 0.3113
Brap pct.1 (A96 vs untreated (UT)): 0.642
Brd2 avg_logFC (A96 vs untreated (UT)): 0.3104
Brd2 pct.1 (A96 vs untreated (UT)): 0.601
Cbr1 avg_logFC (A96 vs untreated (UT)): 0.2829
Cbr1 pct.1 (A96 vs untreated (UT)): 0.591
Cd36 avg_logFC (A96 vs untreated (UT)): 0.3312
Cd36 pct.1 (A96 vs untreated (UT)): 0.299
Cdo1 avg_logFC (A96 vs untreated (UT)): 0.5679
Cdo1 pct.1 (A96 vs untreated (UT)): 0.998
Ces1c avg_logFC (A96 vs untreated (UT)): 0.3583
Ces1c pct.1 (A96 vs untreated (UT)): 1
Ces1e avg_logFC (A96 vs untreated (UT)): 0.2944
Ces1e pct.1 (A96 vs untreated (UT)): 0.71
Ces3a avg_logFC (A96 vs untreated (UT)): −0.2844
Ces3a pct.1 (A96 vs untreated (UT)): 0.97
Ces3b avg_logFC (A96 vs untreated (UT)): −0.3398
Ces3b pct.1 (A96 vs untreated (UT)): 0.685
Ces1d avg_logFC (A96 vs untreated (UT)): 0.4277
Ces1d pct.1 (A96 vs untreated (UT)): 0.977
Chchd10 avg_logFC (A96 vs untreated (UT)): 0.608
Chchd10 pct.1 (A96 vs untreated (UT)): 0.994
Chp1 avg_logFC (A96 vs untreated (UT)): 0.2687
Chp1 pct.1 (A96 vs untreated (UT)): 0.687
Cox5a avg_logFC (A96 vs untreated (UT)): 0.3398
Cox5a pct.1 (A96 vs untreated (UT)): 0.813
Cox6a1 avg_logFC (A96 vs untreated (UT)): 0.2517
Cox6a1 pct.1 (A96 vs untreated (UT)): 0.943
Cox8a avg_logFC (A96 vs untreated (UT)): 0.3089
Cox8a pct.1 (A96 vs untreated (UT)): 0.737
Cp avg_logFC (A96 vs untreated (UT)): 0.2826
Cp pct.1 (A96 vs untreated (UT)): 0.993
Cpeb4 avg_logFC (A96 vs untreated (UT)): 0.3418
Cpeb4 pct.1 (A96 vs untreated (UT)): 0.527
Cpox avg_logFC (A96 vs untreated (UT)): 0.3326
Cpox pct.1 (A96 vs untreated (UT)): 0.634
Cpt1a avg_logFC (A96 vs untreated (UT)): 0.3742
Cpt1a pct.1 (A96 vs untreated (UT)): 0.837
Crat avg_logFC (A96 vs untreated (UT)): 0.2624
Crat pct.1 (A96 vs untreated (UT)): 0.389
Creg1 avg_logFC (A96 vs untreated (UT)): 0.2586
Creg1 pct.1 (A96 vs untreated (UT)): 0.985
Crot avg_logFC (A96 vs untreated (UT)): 0.3326
Crot pct.1 (A96 vs untreated (UT)): 0.989
Csde1 avg_logFC (A96 vs untreated (UT)): 0.2567
Csde1 pct.1 (A96 vs untreated (UT)): 0.742
Ctage5 avg_logFC (A96 vs untreated (UT)): 0.3217
Ctage5 pct.1 (A96 vs untreated (UT)): 0.837
Cxcl12 avg_logFC (A96 vs untreated (UT)): 0.3372
Cxcl12 pct.1 (A96 vs untreated (UT)): 0.635
Cyp4a10 avg_logFC (A96 vs untreated (UT)): 1.12
Cyp4a10 pct.1 (A96 vs untreated (UT)): 0.974
Cyp4a14 avg_logFC (A96 vs untreated (UT)): 1.601
Cyp4a14 pct.1 (A96 vs untreated (UT)): 0.975
D4Wsu53e avg_logFC (A96 vs untreated (UT)): 0.3032
D4Wsu53e pct.1 (A96 vs untreated (UT)): 0.597
D17Wsu92e avg_logFC (A96 vs untreated (UT)): 0.3581
D17Wsu92e pct.1 (A96 vs untreated (UT)): 0.771
Ddx3x avg_logFC (A96 vs untreated (UT)): 0.2899
Ddx3x pct.1 (A96 vs untreated (UT)): 0.701
Decr1 avg_logFC (A96 vs untreated (UT)): 0.3241
Decr1 pct.1 (A96 vs untreated (UT)): 0.808
Decr2 avg_logFC (A96 vs untreated (UT)): 0.3728
Decr2 pct.1 (A96 vs untreated (UT)): 0.813
Dennd5b avg_logFC (A96 vs untreated (UT)): 0.2871
Dennd5b pct.1 (A96 vs untreated (UT)): 0.548
Dhcr24 avg_logFC (A96 vs untreated (UT)): 0.3842
Dhcr24 pct.1 (A96 vs untreated (UT)): 0.933
Dhdh avg_logFC (A96 vs untreated (UT)): 0.2837
Dhdh pct.1 (A96 vs untreated (UT)): 0.734
Dpys avg_logFC (A96 vs untreated (UT)): 0.2626
Dpys pct.1 (A96 vs untreated (UT)): 0.824
Dusp6 avg_logFC (A96 vs untreated (UT)): 0.3249
Dusp6 pct.1 (A96 vs untreated (UT)): 0.476
Ei24 avg_logFC (A96 vs untreated (UT)): 0.2718
Ei24 pct.1 (A96 vs untreated (UT)): 0.667
Eif4g2 avg_logFC (A96 vs untreated (UT)): 0.2838
Eif4g2 pct.1 (A96 vs untreated (UT)): 0.812
Elovl5 avg_logFC (A96 vs untreated (UT)): 0.3232
Elovl5 pct.1 (A96 vs untreated (UT)): 0.765
Erbb2ip avg_logFC (A96 vs untreated (UT)): 0.2553
Erbb2ip pct.1 (A96 vs untreated (UT)): 0.561
Etfdh avg_logFC (A96 vs untreated (UT)): 0.2802
Etfdh pct.1 (A96 vs untreated (UT)): 0.811
F5 avg_logFC (A96 vs untreated (UT)): 0.3557
Fmo1 avg_logFC (A96 vs untreated (UT)): 0.264
Fmo1 pct.1 (A96 vs untreated (UT)): 0.606
Fth1 avg_logFC (A96 vs untreated (UT)): 0.3226
Fth1 pct.1 (A96 vs untreated (UT)): 0.993
G0s2 avg_logFC (A96 vs untreated (UT)): 0.2947
G0s2 pct.1 (A96 vs untreated (UT)): 0.525
Gabarapl1 avg_logFC (A96 vs untreated (UT)): 0.2984
Gabarapl1 pct.1 (A96 vs untreated (UT)): 0.881
Gclc avg_logFC (A96 vs untreated (UT)): 0.2707
Gclc pct.1 (A96 vs untreated (UT)): 0.839
Gclm avg_logFC (A96 vs untreated (UT)): 0.3282
Gclm pct.1 (A96 vs untreated (UT)): 0.865
Gfra1 avg_logFC (A96 vs untreated (UT)): 0.2571
Gfra1 pct.1 (A96 vs untreated (UT)): 0.687
Gm2a avg_logFC (A96 vs untreated (UT)): 0.3164
Gm2a pct.1 (A96 vs untreated (UT)): 0.587
Gm13775 avg_logFC (A96 vs untreated (UT)): −1.05
Gm13775 pct.1 (A96 vs untreated (UT)): 0.3
Gpld1 avg_logFC (A96 vs untreated (UT)): 0.3039
Gpld1 pct.1 (A96 vs untreated (UT)): 0.748
Grn avg_logFC (A96 vs untreated (UT)): 0.3731
Grn pct.1 (A96 vs untreated (UT)): 0.629
Gsta2 avg_logFC (A96 vs untreated (UT)): 0.3111
Gsta2 pct.1 (A96 vs untreated (UT)): 0.522
Gstm3 avg_logFC (A96 vs untreated (UT)): −0.5668
Gstm3 pct.1 (A96 vs untreated (UT)): 0.23
Gstt3 avg_logFC (A96 vs untreated (UT)): 0.3379
Gstt3 pct.1 (A96 vs untreated (UT)): 0.541
Gyk avg_logFC (A96 vs untreated (UT)): 0.4334
Gyk pct.1 (A96 vs untreated (UT)): 0.616
Hadh avg_logFC (A96 vs untreated (UT)): 0.2626
Hadh pct.1 (A96 vs untreated (UT)): 0.774
Hamp2 avg_logFC (A96 vs untreated (UT)): 0.3052
Hamp2 pct.1 (A96 vs untreated (UT)): 0.203

From patent US20230053540A1, “TREATMENT OF LIVER INJURY” (Massachusetts Institute of Technology, priority 2019, published 2023)
